We go through eight compounds from ChEMBL document CHEMBL4265876, “Natural Products with Heteroatom-Rich Ring Systems” (J Nat Prod, 2017).

What is called IC50 is the concentration that inhibits the measured activity by half. Lower therefore signals greater potency in that assay. For orientation: MIC means the lowest concentration that inhibits growth of the organism. The low end stands for greater potency, the high end for weaker potency. What is called MIC80 is the lowest concentration that inhibits either 80% of growth or 80% of the strains tested, depending on the study. Low values mean higher susceptibility, high ones lower susceptibility.

The structures appear in SMILES notation. ≈ marks a conversion by molar mass, not a printed value.

Assay [1] has as its system MDA-MB-231. Briefly: Cytotoxicity against human MDA231 cells. Format: functional, cell-based.
Assay [2] deals with UMUC3. Briefly: Cytotoxicity against human UM-UC-3 cells. In kind it is functional, cell-based.
Assay [3] relates to PC-3. Nature of the assay: Cytotoxicity against human PC3 cells. Format: functional, cell-based.
Assay [4] concerns MIA PaCa-2. Briefly: Cytotoxicity against human MIAPaCa2 cells. In kind it is functional, cell-based.
In assay [5] the test system is HT-29. Briefly: Cytotoxicity against human HT-29 cells. In kind it is functional, cell-based.
Assay [6] relates to Klebsiella sp. Nature of the assay: Antimicrobial activity against Klebsiella sp. In kind it is functional.
Assay [7] deals with Staphylococcus aureus. Nature of the assay: Antibacterial activity against Staphylococcus aureus. Format: functional.
Assay [8] deals with Enterobacter sp. Briefly: Antimicrobial activity against Enterobacter sp. In kind it is functional.
For assay [9], the system named is Citrobacter. Briefly: Antimicrobial activity against Citrobacter. Format: functional.
Assay [10] concerns L1210. Nature of the assay: Cytotoxicity against mouse L1210 cells. In kind it is functional, cell-based.
Assay [11] relates to Escherichia coli. Briefly: Antibacterial activity against Escherichia coli. In kind it is functional.
Assay [12] relates to Candida albicans. Briefly: Antifungal activity against Candida albicans. Format: functional.
The test system of assay [13] is Proteus sp. Nature of the assay: Antimicrobial activity against Proteus sp. In kind it is functional. To be noted: Proteus sp. (in: enterobacteria).
Assay [14] deals with Salmonella sp. Nature of the assay: Antimicrobial activity against Salmonella sp. Format: functional.
Assay [15] deals with Trichophyton mentagrophytes. Nature of the assay: Antimicrobial activity against Trichophyton mentagrophytes. Format: functional.
Assay [16] deals with Enterococcus faecalis. Nature of the assay: Antimicrobial activity against Streptococcus faecalis. Format: functional.
The subject of assay [17] is Mycobacterium. Nature of the assay: Antibacterial activity against Mycobacterium B5. In kind it is functional.
The test system of assay [18] is Clavibacter michiganensis. Briefly: Antibacterial activity against Clavibacter michiganensis. Format: functional.
Assay [19] deals with Xanthomonas citri pv. malvacearum. Nature of the assay: Antibacterial activity against Xanthomonas malvacearum. Format: functional.
For assay [20], the system named is Ehrlich. Nature of the assay: Antitumor activity against mouse Ehrlich carcinoma cells xenografted in white mouse assessed as growth inhibition at 0.2 mg/kg, ip for 7 days. Format: functional. Conditions: 168 h, read-out: GI.
The subject of assay [21] is Ehrlich. Briefly: Antitumor activity against mouse Ehrlich carcinoma cells xenografted in white mouse assessed as growth inhibition at 50 mg/kg, ip for 7 days. Format: functional. Conditions: 168 h, read-out: GI.
In assay [22] the test system is KB. Nature of the assay: Growth inhibition of human KB cells. In kind it is functional, cell-based.
In assay [23] the test system is Ehrlich. Nature of the assay: Antitumor activity against mouse Ehrlich carcinoma cells xenografted in white mouse assessed as growth inhibition at 20 mg/kg, ip for 7 days. Format: functional. Conditions: 168 h, read-out: GI.
For assay [24], the system named is Candida albicans. Briefly: Antifungal activity against Candida albicans SC5314. Format: functional.
Assay [25] concerns Candida albicans. Nature of the assay: Antifungal activity against Candida albicans YO109. In kind it is functional.
Assay [26] relates to Cryptococcus neoformans. Briefly: Antifungal activity against Cryptococcus neoformans. Format: functional.
Assay [27] has as its system Trichophyton rubrum. Briefly: Antifungal activity against Trichophyton rubrum. In kind it is functional.
Assay [28] deals with Streptococcus pyogenes. Nature of the assay: Antibacterial activity against Streptococcus hemolyticus. In kind it is functional.
The subject of assay [29] is Salmonella sp. Nature of the assay: Antibacterial activity against Salmonella sp. In kind it is functional.
Assay [30] deals with Pasteurella multocida. Nature of the assay: Antibacterial activity against Pasteurella multocida. In kind it is functional.
For assay [31], the system named is Morganella morganii. Nature of the assay: Antibacterial activity against Proteus morgana. Format: functional.
The subject of assay [32] is Providencia rettgeri. Briefly: Antibacterial activity against Proteus rettgeri. In kind it is functional.
The subject of assay [33] is Serratia marcescens. Briefly: Antibacterial activity against Serratia marcescens. Format: functional.
The test system of assay [34] is Klebsiella pneumoniae. Nature of the assay: Antibacterial activity against Klebsiella pneumoniae. Format: functional.
The subject of assay [35] is Herpesviridae sp. Nature of the assay: Antiviral activity against Herpes simplex virus infected in mouse assessed as mouse survival at 400 mg/kg, sc for 28 days. In kind it is functional. To be noted: 672 h.
Assay [36] relates to Haemophilus. Briefly: Antibacterial activity against Haemophilus sp. In kind it is functional.

In the case of `COc1cc(CCN)c2c(c1OC)SS[S+]2[O-]` (configuration not stated), the IC50 in assay [1], in assay [2], in [3], in assay [4] and in assay [5] was 2.4 to 11.9 nM each time.

For `COc1c(O)cc(CCN)c2c1SSSSS2`, the MIC in [6] was 0.1 to 0.6 µg/mL (≈ 0.307 to 1.84 µM); in assay [7], 0.1 to 0.6 µg/mL (≈ 0.307 to 1.84 µM); in [8], 0.1 to 0.6 µg/mL (≈ 0.307 to 1.84 µM); in [9], 0.1 to 0.6 µg/mL (≈ 0.307 to 1.84 µM); in assay [11], 0.1 to 0.6 µg/mL (≈ 0.307 to 1.84 µM); in [12] it was 40 µg/mL (≈ 123 µM). Further, the MIC in assay [13] is 0.1 to 0.6 µg/mL (≈ 0.307 to 1.84 µM); in assay [14], 0.1 to 0.6 µg/mL (≈ 0.307 to 1.84 µM); in assay [15], 20 µg/mL (≈ 61.4 µM); in [16] it was 0.1 to 0.6 µg/mL (≈ 0.307 to 1.84 µM). This compound also had an IC50 in [10] of 1 µg/mL (≈ 3.07 µM).

On to `COc1nnc2nn(C)cnc1-2`, for which the MIC in assay [17], in [18] and in assay [19] was 5000 to 50000 µg/mL (≈ 30300 to 303000 µM) each time. For the same compound, the inhibition in vivo at 0.2 mg/kg in [20] turned out to be 40%.

For `COc1[nH]nc2nncnc12`, in assay [21], the inhibition in vivo at 50 mg/kg is 83%.

In assay [11], `Nc1ncn([C@@H]2O[C@H](CO)[C@@H](O)[C@H]2O)c(=O)n1` [AZACITIDINE] came in with an MIC of 0.01 µg/mL (≈ 0.0409 µM). Besides, half-maximal inhibition in assay [22] (IC50) was put at 0.23 µg/mL (≈ 0.942 µM).

For `COc1nnc2n(C)ncnc1-2` [PSEUDOIODININE], in [23], the inhibition in vivo at 20 mg/kg is 64%.

For `CC[C@H]1CC/C(=C2\C(=O)O[C@H](C)C2=O)O1`, the MIC80 in assay [24] is 32 µg/mL (≈ 152 µM); in [25], 8 µg/mL (≈ 38.1 µM); in assay [26], 16 µg/mL (≈ 76.1 µM); in [27] it was 64 µg/mL (≈ 304 µM).

On to `CN1CN([C@H]2C[C@H](O)[C@@H](CO)O2)C(=O)NC1=O`, for which the Activity in assay [28], in assay [29], in assay [30], in [31], in [32] and in [34] was 2 to 125 µg/mL in each case. The Activity in assay [36] was in the range of 2 to 125 µg/mL. The compound further gave an MIC in assay [33] of 2 to 125 µg/mL (≈ 8.16 to 510 µM). Also, in assay [35], the survival at 400 mg/kg was found to be 50%.
